Laboratory results published in PubChem BioAssay (NCI).
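Tested at 5 concentrations; 48 h exposure; 96-well plates; endpoints linearly interpolated, else capped at highest concentration. TGI denotes the concentration required for complete inhibition of growth.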

Legend:
Experiment in all cases: inhibition of tumour cell growth, NCI panel, 48 h
DLD-1 colon = system: DLD-1 colon
UACC-62 melanoma = system: UACC-62 melanoma
SF-539 CNS = system: SF-539 CNS
CCRF-CEM leukemia = system: CCRF-CEM leukemia
LOX IMVI melanoma = system: LOX IMVI melanoma
MOLT-4 leukemia = system: MOLT-4 leukemia
MALME-3M melanoma = system: MALME-3M melanoma
DMS 114 small cell lung = system: DMS 114 small cell lung
KM12 colon = system: KM12 colon
SNB-75 CNS = system: SNB-75 CNS
SF-295 CNS = system: SF-295 CNS
M19-MEL melanoma = system: M19-MEL melanoma
SN12C renal = system: SN12C renal
SNB-78 CNS = system: SNB-78 CNS
K-562 leukemia = system: K-562 leukemia
KM20L2 colon = system: KM20L2 colon
HOP-62 NSCLC = system: HOP-62 NSCLC
IGROV1 ovarian = system: IGROV1 ovarian
XF 498 CNS = system: XF 498 CNS
OVCAR-8 ovarian = system: OVCAR-8 ovarian
SNB-19 CNS = system: SNB-19 CNS
NCI-H460 lung = system: NCI-H460 lung
COLO 205 colon = system: COLO 205 colon
DMS 273 small cell lung = system: DMS 273 small cell lung
SF-268 CNS = system: SF-268 CNS
SW-620 colon = system: SW-620 colon
NCI-H226 lung = system: NCI-H226 lung
ACHN renal = system: ACHN renal
NCI-H23 lung = system: NCI-H23 lung
NCI-H522 lung = system: NCI-H522 lung
SK-MEL-5 melanoma = system: SK-MEL-5 melanoma
OVCAR-5 ovarian = system: OVCAR-5 ovarian
LXFL 529 NSCLC = system: LXFL 529 NSCLC
TK-10 renal = system: TK-10 renal
SR leukemia = system: SR leukemia
U251 CNS = system: U251 CNS
A549 NSCLC = system: A549 NSCLC
UO-31 renal = system: UO-31 renal
HCT-116 colon = system: HCT-116 colon
M14 melanoma = system: M14 melanoma
CAKI-1 renal = system: CAKI-1 renal
OVCAR-3 ovarian = system: OVCAR-3 ovarian
UACC-257 melanoma = system: UACC-257 melanoma
OVCAR-4 ovarian = system: OVCAR-4 ovarian
SK-OV-3 ovarian = system: SK-OV-3 ovarian
786-0 renal = system: 786-0 renal
EKVX NSCLC = system: EKVX NSCLC
SK-MEL-2 melanoma = system: SK-MEL-2 melanoma
HCT-15 colon = system: HCT-15 colon
SK-MEL-28 melanoma = system: SK-MEL-28 melanoma
HOP-92 NSCLC = system: HOP-92 NSCLC
HCC-2998 colon = system: HCC-2998 colon
A498 renal = system: A498 renal
HT29 colon = system: HT29 colon
RPMI-8226 leukemia = system: RPMI-8226 leukemia

Measured: TGI

Cc1cc(=O)c2c(O)cc3c(c2o1)CC=C(COC1OC(COC2OC(CO)C(O)C(O)C2O)C(O)C(O)C1O)CO3 (stereo unspecified)
not listed: A498 renal | HT29 colon | RPMI-8226 leukemia
> 100 µM: all other assays above

NC1=NC(=O)C(CC(=O)Nc2ccc(Cl)cc2Cl)S1 (stereo unspecified)
not listed: DMS 114 small cell lung | NCI-H226 lung | NCI-H522 lung | SR leukemia | HCT-116 colon | HOP-92 NSCLC
> 100 µM: all other assays above
